Like-named read-outs stand apart in the source and are kept apart here.
Assays:
ABCB1 = ABCB1 (Homo sapiens, UniProt P08183); test: JC-1 efflux inhibition dose response, flow cytometry, Jurkat-DNR cells; settings: for IC50: Jurkat-DNR cells over-expressing ABCB1, averages of two to four replicates
Experimental: (§1) The HyperCyt® high throughput flow cytometry platform (IntelliCyt™, Albuquerque, N. Mex.) was used to sequentially sample cells from 384-well microplates (2 μL/sample) for flow cytometer presentation at a rate of 40 samples per minute.^62-63 Flow cytometric analysis was performed on a CyAn™ flow cytometer (Beckman-Coulter, Fullerton, Calif.). The resulting time-gated data files were analyzed with HyperView® software to determine compound activity in each well. Inhibition response curves were fitted by Prism® software (GraphPad Software, Inc., San Diego, Calif.) using nonlinear least-squares regression in a sigmoidal dose response model with variable slope, also known as the four-parameter logistic equation. This type of time-gated flow cytometric data analysis was described in detail for a previous ABC transporter screen from our group.^56
The assay provider's ABCB1 over-expressing Jurkat-DNR cell line is used for confirmatory follow up instead of the CCRF-Adr cells. Each cell line (Jurkat-DNR and Ig-MXP3) is run separately against all compounds (no differential cell staining) in dose response. The assay is conducted in 384-well format in a total volume of 15.1 μL. Cells and reagents are added sequentially as follows: 1) PBS buffer (5 μL/well); 2) test compound (100 nL/well); 3) drug-resistant cells (10 μL/well) pre-stained with the JC-1 substrate at 1 μM. Final in-well concentrations of test compound range from 50 μM to 69 nM over an 18 point dose response and the cell concentration is 1×10^6 cells/mL. Nicardipine (50 μM) is added to each plate as a pan-inhibition positive control. The plate is rotated end-over-end at 4 RPM and 25° C. for 30 minutes and then cell samples are analyzed and flow cytometric data of light scatter and fluorescence emission at 530+/−20 nm (488 nm excitation, FL1) are collected.
(§2) Each cell line (Jurkat-DNR and Ig-MXP3) was run separately against all compounds (no differential cell staining) in dose-response. The protocol differed from the single point screen as describe here. Cells and reagents were added sequentially as follows: 1) PBS buffer (5 μL per well); 2) test compound (100 nL per well); 3) drug-resistant cells (10 μL, per well) pre-exposed to the JC-1 substrate at 1 μM just prior to the well addition. Final in-well concentrations of test compound ranged from 50 μM to 69 nM over an 18 point dose-response and the cell concentration was 1×10^6 cells mL^−1.

ABCG2 = biological target: T1, ABCG2 (Homo sapiens, UniProt Q9UNQ0); test: JC-1 efflux inhibition dose response, flow cytometry, Ig-MXP3 cells; settings: for ~Fold G2 Selective (B1/G2): quotient of average ABCB1 IC50 and average ABCG2 IC50, efflux assay
T1 sequence (Q9UNQ0 1-655): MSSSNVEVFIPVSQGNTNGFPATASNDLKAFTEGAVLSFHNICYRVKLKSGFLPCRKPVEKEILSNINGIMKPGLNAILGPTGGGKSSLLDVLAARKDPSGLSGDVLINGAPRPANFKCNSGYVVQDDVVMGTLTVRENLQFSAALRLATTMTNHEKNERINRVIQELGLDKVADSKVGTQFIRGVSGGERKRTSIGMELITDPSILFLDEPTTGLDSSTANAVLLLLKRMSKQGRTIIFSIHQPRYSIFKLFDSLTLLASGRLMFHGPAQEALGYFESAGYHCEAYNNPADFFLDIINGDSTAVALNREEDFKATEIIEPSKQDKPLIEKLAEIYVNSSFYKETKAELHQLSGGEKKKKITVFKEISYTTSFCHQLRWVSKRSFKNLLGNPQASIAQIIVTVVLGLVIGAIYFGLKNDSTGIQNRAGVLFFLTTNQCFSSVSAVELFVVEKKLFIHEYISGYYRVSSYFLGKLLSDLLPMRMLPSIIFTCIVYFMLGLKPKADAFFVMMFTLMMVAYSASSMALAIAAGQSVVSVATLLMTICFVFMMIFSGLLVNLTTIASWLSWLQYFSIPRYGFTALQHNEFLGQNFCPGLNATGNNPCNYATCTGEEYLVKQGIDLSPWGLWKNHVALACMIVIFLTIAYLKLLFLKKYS
Experimental: as §1
(§3) The assay provider's ABCB1 over-expressing Jurkat-DNR cell line is used for confirmatory follow up instead of the CCRF-Adr cells. Each cell line (Jurkat-DNR and Ig-MXP3) is run separately against all compounds (no differential cell staining) in dose response. The assay is conducted in 384-well format in a total volume of 15.1 μL. Cells and reagents are added sequentially as follows: 1) PBS buffer (5 μL/well); 2) test compound (100 nL/well); 3) drug-resistant cells (10 μL/well) pre-stained with the JC-1 substrate at 1 μM. […] Nicardipine (50 μM) is added to each plate as a pan-inhibition positive control.
as §2, with “addition.” for “addition. Final in-well concentrations of test compound ranged from 50 μM to 69 nM over an 18 point dose-response and the cell concentration was 1×10^6 cells mL^−1.”

ABCB1 / ABCG2 = biological target: T2, ABCB1 / ABCG2 (Homo sapiens, UniProt Q9UNQ0); test: as above; settings: human, probe JC-1 (1 µM), ~Fold G2 Selective (B1/G2), quotient of average ABCB1 IC50 and average ABCG2 IC50, efflux assay
T2 sequence (Q9UNQ0 1-655): T1 sequence (Q9UNQ0 1-655)
Experimental: as §1, §3
as §2, with “addition.” for “addition. Final in-well concentrations of test compound ranged from 50 μM to 69 nM over an 18 point dose-response and the cell concentration was 1×10^6 cells mL^−1.”

[1] = IC50 ABCB1 (efflux inhibition of JC-1 substrate)
[2] = read-out: IC50 ABCB1 (efflux inhibition of JC-1 substrate)
[3] = read-out: IC50 ABCG2 (efflux inhibition of JC-1 substrate), Ig-MXP3 cells over-expressing ABCG2, averages of two to four replicates

Sequence of ABCB1 (P08183 whole entry): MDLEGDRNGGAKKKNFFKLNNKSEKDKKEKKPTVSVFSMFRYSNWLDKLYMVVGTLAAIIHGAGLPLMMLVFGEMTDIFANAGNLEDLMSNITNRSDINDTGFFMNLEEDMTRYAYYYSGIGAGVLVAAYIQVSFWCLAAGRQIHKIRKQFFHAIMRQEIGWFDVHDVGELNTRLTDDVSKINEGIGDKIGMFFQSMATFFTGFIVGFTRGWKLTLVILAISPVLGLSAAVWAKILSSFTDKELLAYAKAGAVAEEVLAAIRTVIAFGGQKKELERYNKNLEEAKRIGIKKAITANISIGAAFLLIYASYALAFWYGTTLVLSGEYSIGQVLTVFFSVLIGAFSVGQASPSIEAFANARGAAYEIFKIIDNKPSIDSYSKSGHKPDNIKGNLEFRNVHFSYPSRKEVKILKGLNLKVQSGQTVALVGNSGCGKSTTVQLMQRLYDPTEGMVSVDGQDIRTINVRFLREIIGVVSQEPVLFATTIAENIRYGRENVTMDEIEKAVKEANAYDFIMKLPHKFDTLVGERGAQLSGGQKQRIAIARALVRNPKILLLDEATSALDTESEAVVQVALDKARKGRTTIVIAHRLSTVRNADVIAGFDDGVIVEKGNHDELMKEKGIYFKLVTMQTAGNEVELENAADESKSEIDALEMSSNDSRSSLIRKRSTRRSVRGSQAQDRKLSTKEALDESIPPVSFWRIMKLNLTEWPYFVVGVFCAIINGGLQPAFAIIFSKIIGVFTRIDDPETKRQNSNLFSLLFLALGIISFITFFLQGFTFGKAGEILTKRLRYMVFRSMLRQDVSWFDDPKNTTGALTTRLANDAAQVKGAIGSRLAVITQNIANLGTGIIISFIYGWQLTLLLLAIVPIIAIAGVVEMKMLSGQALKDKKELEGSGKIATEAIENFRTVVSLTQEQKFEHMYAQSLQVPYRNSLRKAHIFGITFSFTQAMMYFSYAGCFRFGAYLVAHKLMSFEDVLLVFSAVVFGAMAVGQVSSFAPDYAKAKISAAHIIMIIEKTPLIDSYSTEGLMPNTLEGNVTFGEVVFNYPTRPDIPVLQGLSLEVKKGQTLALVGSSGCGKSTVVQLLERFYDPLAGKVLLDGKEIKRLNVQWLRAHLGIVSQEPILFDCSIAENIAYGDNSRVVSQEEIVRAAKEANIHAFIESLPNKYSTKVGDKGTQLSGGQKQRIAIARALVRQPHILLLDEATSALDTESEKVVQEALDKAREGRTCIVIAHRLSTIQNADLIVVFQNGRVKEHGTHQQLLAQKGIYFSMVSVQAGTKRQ

Structure (SMILES)	efflux inhibition activity ABCB1 (ABCB1; JC-1 efflux, Jurkat-DNR)	efflux inhibition activity ABCG2 (ABCG2; JC-1 efflux, Ig-MXP3)	IC50 (ABCB1; [1])	selectivity ratio at 30 min (ABCB1 / ABCG2)	IC50 (ABCG2)	~Fold G2 Selective (B1/G2) (ABCG2)	IC50 (ABCB1; [2])	IC50 (ABCG2; [3])
COc1ccc2c3c([nH]c2c1)[C@H](C=C(C)C)N1C(=O)[C@@H]2CCCN2C(=O)[C@@H]1C3 [Compound 3, reference compound]	no activity	no activity	–	–	–	–	–	–
Cc1cc(N2CCN(C(=O)c3ccco3)CC2)n2nc(-c3cccc(Cl)c3)cc2n1 [Compound 10]	–	–	5.88 ± 1.17 µM	2.1	2.78 ± 0.82 µM	–	–	–
O=C(c1ccoc1)N1CCN(c2cc(-c3ccccc3)nc3cc(-c4cccc(Cl)c4)nn23)CC1 [Compound 11]	–	–	8.58 ± 0.63 µM	7	1.19 ± 0.26 µM	7.2 fold	–	–
O=C(c1ccsc1)N1CCN(c2cc(-c3ccccc3)nc3cc(-c4cccc(Cl)c4)nn23)CC1 [Compound 12]	–	–	3.97 ± 0.8 µM	2.8	1.4 ± 0.32 µM	–	–	–
O=C(c1ccccc1)N1CCN(c2cc(-c3ccccc3)nc3cc(-c4cccc(Cl)c4)nn23)CC1 [Compound 13]	–	–	3.42 ± 1.64 µM	2.4	1.45 ± 0.59 µM	–	–	–
COc1ccccc1C(=O)N1CCN(c2cc(-c3ccccc3)nc3cc(-c4cccc(Cl)c4)nn23)CC1 [Compound 14]	–	–	4.73 ± 1.78 µM	1	4.92 ± 4.28 µM	–	–	–
COc1ccc(C(=O)N2CCN(c3cc(-c4ccccc4)nc4cc(-c5cccc(Cl)c5)nn34)CC2)cc1 [Compound 16]	–	–	2.89 ± 0.55 µM	1	2.82 ± 1.91 µM	–	–	–
O=C(c1ccccc1Cl)N1CCN(c2cc(-c3ccccc3)nc3cc(-c4cccc(Cl)c4)nn23)CC1 [Compound 17]	–	–	1.85 ± 0.75 µM	1.4	1.31 ± 0.23 µM	–	–	–
O=C(c1cccc(Cl)c1)N1CCN(c2cc(-c3ccccc3)nc3cc(-c4cccc(Cl)c4)nn23)CC1 [Compound 18]	–	–	4.19 ± 1.88 µM	1.4	2.95 ± 0.57 µM	–	–	–
O=C(c1ccc(Cl)cc1)N1CCN(c2cc(-c3ccccc3)nc3cc(-c4cccc(Cl)c4)nn23)CC1 [Compound 19]	–	–	2.36 ± 0.7 µM	0.9	2.67 ± 0.85 µM	–	–	–
O=C(C1CCCCC1)N1CCN(c2cc(-c3ccccc3)nc3cc(-c4cccc(Cl)c4)nn23)CC1 [Compound 22]	–	–	3.31 ± 1.86 µM	1.2	2.67 ± 1.26 µM	–	–	–
CC(=O)N1CCN(c2cc(-c3ccccc3)nc3cc(-c4cccc(Cl)c4)nn23)CC1 [Compound 23]	–	–	5.67 ± 2.21 µM	0.9	6.07 ± 0.73 µM	–	–	–
O=S(=O)(c1ccccc1)N1CCN(c2cc(-c3ccccc3)nc3cc(-c4cccc(Cl)c4)nn23)CC1 [Compound 25]	–	–	> 50 µM	–	> 50 µM	–	–	–
O=C(c1ccoc1)N1CCN(c2cc(-c3ccccc3F)nc3cc(-c4cccc(Cl)c4)nn23)CC1 [Compound 26]	–	–	4.69 ± 1.5 µM	2.4	1.93 ± 0.48 µM	–	–	–
O=C(c1ccoc1)N1CCN(c2cc(-c3ccc(F)cc3)nc3cc(-c4cccc(Cl)c4)nn23)CC1 [Compound 27]	–	–	5.65 ± 0.11 µM	2.3	2.41 ± 0.52 µM	–	–	–
COc1cccc(-c2cc(N3CCN(C(=O)c4ccoc4)CC3)n3nc(-c4cccc(Cl)c4)cc3n2)c1 [Compound 28]	–	–	2.17 ± 1.02 µM	1.9	1.14 ± 0.54 µM	–	–	–

Structure (SMILES)	efflux inhibition activity ABCB1 (ABCB1; JC-1 efflux, Jurkat-DNR)	efflux inhibition activity ABCG2 (ABCG2; JC-1 efflux, Ig-MXP3)	IC50 (ABCB1; [1])	selectivity ratio at 30 min (ABCB1 / ABCG2)	IC50 (ABCG2)	~Fold G2 Selective (B1/G2) (ABCG2)	IC50 (ABCB1; [2])	IC50 (ABCG2; [3])
COc1ccc(-c2cc(N3CCN(C(=O)c4ccoc4)CC3)n3nc(-c4cccc(Cl)c4)cc3n2)cc1 [Compound 29]	–	–	4.12 ± 1.05 µM	2.4	1.71 ± 0.58 µM	–	–	–
C#Cc1cc(N2CCN(C(=O)c3ccoc3)CC2)n2nc(-c3cccc(Cl)c3)cc2n1 [Compound 32]	–	–	10.2 ± 3.99 µM	4.3	2.36 ± 0.53 µM	–	–	–
O=C(c1ccoc1)N1CCN(c2cc(-c3ccccc3)nc3cc(-c4ccc(Br)cc4)nn23)CC1 [Compound 33]	–	–	1.31 ± 0.35 µM	1.7	0.76 ± 0.43 µM	–	–	–
COc1cccc(-c2cc3nc(-c4ccccc4)cc(N4CCN(C(=O)c5ccoc5)CC4)n3n2)c1 [Compound 35]	–	–	2.26 ± 0.83 µM	2	1.14 ± 0.59 µM	–	–	–
COc1ccccc1-c1cc2nc(-c3ccccc3)cc(N3CCN(C(=O)c4ccco4)CC3)n2n1 [Compound 37]	–	–	–	–	–	2.9 fold	3 ± 0.57 µM	1.03 ± 0.17 µM
COc1cccc(-c2cc3nc(-c4ccccc4)cc(N4CCN(C(=O)c5ccco5)CC4)n3n2)c1 [Compound 38]	–	–	4.77 ± 0.63 µM	3.4	1.4 ± 0.32 µM	–	–	–
O=C(c1ccco1)N1CCN(c2cc(-c3ccccc3)nc3cc(-c4ccc(Cl)cc4)nn23)CC1 [Compound 39]	–	–	3.64 ± 1.47 µM	2.7	1.37 ± 0.53 µM	–	–	–
Cc1cccc(-c2cc3nc(-c4ccccc4)cc(N4CCN(C(=O)c5ccco5)CC4)n3n2)c1 [Compound 40]	–	–	3.88 ± 1.67 µM	1.6	2.46 ± 1.09 µM	–	–	–
COc1ccccc1-c1cc2nc(-c3ccccc3)cc(N3CCN(C(=O)c4ccccc4)CC3)n2n1 [Compound 41]	–	–	–	–	–	3.0 fold	2.31 ± 0.79 µM	0.76 ± 0.06 µM
O=C(c1ccsc1)N1CCN(c2cc(-c3ccco3)nc3cc(-c4ccccc4)nn23)CC1 [Compound 68]	–	–	–	–	–	3.6 fold	4.93 ± 1.76 µM	1.38 ± 1.04 µM
Cc1occc1C(=O)N1CCN(c2cc(-c3ccco3)nc3cc(-c4ccccc4)nn23)CC1 [Compound 70]	–	–	–	–	–	5.1 fold	11.9 ± 7.4 µM	2.33 ± 2.23 µM
Cc1coc(C)c1C(=O)N1CCN(c2cc(-c3ccco3)nc3cc(-c4ccccc4)nn23)CC1 [Compound 71]	–	–	–	–	–	2.0 fold	7.32 ± 2.52 µM	3.68 ± 2.21 µM
Cc1cc(C(=O)N2CCN(c3cc(-c4ccco4)nc4cc(-c5ccccc5)nn34)CC2)c(C)o1 [Compound 72]	–	–	–	–	–	3.6 fold	12 ± 6.11 µM	3.37 ± 1.19 µM
O=C(c1coc2ccccc12)N1CCN(c2cc(-c3ccco3)nc3cc(-c4ccccc4)nn23)CC1 [Compound 73]	–	–	–	–	–	3.1 fold	8.83 ± 6.63 µM	2.84 ± 0.96 µM
CN(C)CCN(C)c1cc(-c2ccco2)nc2cc(-c3ccccc3)nn12 [Compound 78]	–	–	> 50 µM	–	8.88 ± 2.82 µM	–	–	–
O=C(Nc1ccccc1)C1CCN(c2cc(-c3ccco3)nc3cc(-c4ccccc4)nn23)CC1 [Compound 84]	–	–	> 50 µM	–	8.03 ± 2.18 µM	–	–	–

From patent publication US9056111B1, “Selective efflux inhibitors and related pharmaceutical compositions and methods of treatment” (STC.UNM, priority 2011, dated 2015)
